Assay results as given in ChEMBL document CHEMBL1201862, “PubChem BioAssay data set” (2004).
Calls of active or inactive are those of the source.

How the values were obtained:
Type in all cases: functional
[1] = target: T1, Sentrin-specific protease 6 (Homo sapiens, UniProt Q9GZR1);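 also: Luminescence-based dose-response confirmatory assay of SENP6 inhibition, following up an ultra-high-throughput screen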
T1 sequence (Q9GZR1 whole entry): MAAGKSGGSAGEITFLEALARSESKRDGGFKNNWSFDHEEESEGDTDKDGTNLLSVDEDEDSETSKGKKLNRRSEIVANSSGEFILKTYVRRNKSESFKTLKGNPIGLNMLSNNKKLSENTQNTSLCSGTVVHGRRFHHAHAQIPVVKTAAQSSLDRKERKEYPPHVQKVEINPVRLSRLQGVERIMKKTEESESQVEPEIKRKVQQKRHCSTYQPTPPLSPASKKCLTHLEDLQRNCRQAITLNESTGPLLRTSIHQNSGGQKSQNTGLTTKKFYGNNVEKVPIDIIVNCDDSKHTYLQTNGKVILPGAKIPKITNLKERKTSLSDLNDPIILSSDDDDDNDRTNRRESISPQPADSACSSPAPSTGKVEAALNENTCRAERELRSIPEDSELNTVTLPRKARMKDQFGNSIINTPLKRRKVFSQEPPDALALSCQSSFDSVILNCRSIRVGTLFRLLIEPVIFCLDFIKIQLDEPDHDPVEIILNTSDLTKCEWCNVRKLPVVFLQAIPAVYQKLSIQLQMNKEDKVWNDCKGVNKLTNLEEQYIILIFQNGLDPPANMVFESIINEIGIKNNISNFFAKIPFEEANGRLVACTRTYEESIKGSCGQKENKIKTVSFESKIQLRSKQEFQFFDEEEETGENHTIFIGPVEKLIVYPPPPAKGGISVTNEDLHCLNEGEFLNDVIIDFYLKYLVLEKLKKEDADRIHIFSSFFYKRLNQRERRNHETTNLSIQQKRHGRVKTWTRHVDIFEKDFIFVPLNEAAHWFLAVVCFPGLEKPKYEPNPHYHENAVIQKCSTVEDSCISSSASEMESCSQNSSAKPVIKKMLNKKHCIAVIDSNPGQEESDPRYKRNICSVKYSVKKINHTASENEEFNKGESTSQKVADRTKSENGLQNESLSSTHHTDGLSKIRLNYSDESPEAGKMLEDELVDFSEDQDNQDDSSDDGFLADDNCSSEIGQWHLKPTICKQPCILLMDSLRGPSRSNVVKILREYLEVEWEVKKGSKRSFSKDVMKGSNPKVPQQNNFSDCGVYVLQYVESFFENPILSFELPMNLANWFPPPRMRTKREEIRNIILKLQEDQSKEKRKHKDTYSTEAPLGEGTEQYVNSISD

[2] = target: Serine/threonine-protein kinase PLK4 (Homo sapiens, UniProt O00444);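 also: PLK4 measured as one member of a kinome-wide kinase profiling panel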
Serine/threonine-protein kinase PLK4, sequence (O00444 whole entry): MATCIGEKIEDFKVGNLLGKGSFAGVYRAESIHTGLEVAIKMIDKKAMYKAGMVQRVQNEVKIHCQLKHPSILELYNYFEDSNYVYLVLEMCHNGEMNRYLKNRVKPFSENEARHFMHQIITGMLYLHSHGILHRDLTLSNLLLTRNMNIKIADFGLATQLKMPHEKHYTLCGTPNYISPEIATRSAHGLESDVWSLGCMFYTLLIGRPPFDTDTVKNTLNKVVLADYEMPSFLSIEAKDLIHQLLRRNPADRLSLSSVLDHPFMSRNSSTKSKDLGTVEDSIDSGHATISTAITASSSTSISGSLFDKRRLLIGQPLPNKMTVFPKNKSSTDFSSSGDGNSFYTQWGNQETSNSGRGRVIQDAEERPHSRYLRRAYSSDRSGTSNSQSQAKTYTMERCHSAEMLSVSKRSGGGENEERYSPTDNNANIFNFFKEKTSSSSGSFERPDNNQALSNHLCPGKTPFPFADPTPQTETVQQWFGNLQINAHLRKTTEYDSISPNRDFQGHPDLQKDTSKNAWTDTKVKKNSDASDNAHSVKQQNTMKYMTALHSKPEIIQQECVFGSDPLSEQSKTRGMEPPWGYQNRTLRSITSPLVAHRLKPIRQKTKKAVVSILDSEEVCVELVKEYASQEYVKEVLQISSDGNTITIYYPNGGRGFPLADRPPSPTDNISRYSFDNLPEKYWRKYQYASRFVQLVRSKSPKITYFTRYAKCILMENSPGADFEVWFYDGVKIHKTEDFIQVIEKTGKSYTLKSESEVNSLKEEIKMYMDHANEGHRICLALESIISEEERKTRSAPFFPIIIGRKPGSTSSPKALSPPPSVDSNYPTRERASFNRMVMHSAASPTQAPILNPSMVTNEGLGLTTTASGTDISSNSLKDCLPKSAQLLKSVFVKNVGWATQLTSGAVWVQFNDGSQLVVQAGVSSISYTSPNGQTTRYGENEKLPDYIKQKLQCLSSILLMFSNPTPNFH

[3] = target: Serine/threonine-protein kinase Nek2 (Homo sapiens, UniProt P51955)
Serine/threonine-protein kinase Nek2, sequence (P51955 whole entry): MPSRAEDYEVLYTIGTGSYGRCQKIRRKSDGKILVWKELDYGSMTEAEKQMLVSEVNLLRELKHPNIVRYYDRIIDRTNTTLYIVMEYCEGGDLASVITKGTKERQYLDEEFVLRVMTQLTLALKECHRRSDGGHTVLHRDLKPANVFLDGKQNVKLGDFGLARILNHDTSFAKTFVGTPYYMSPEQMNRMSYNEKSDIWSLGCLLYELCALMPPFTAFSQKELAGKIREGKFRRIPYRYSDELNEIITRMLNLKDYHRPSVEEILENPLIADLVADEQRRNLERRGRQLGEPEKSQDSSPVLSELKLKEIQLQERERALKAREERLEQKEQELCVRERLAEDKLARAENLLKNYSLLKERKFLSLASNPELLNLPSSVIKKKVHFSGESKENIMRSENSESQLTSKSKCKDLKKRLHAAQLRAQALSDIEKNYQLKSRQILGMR

[4] = target: Serine/threonine-protein kinase DCLK1 (Homo sapiens, UniProt O15075);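 also: affinity for DCLK1 (listed as DCAMKL1) measured as one member of a kinome-wide kinase profiling panel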
Serine/threonine-protein kinase DCLK1, sequence (O15075 whole entry): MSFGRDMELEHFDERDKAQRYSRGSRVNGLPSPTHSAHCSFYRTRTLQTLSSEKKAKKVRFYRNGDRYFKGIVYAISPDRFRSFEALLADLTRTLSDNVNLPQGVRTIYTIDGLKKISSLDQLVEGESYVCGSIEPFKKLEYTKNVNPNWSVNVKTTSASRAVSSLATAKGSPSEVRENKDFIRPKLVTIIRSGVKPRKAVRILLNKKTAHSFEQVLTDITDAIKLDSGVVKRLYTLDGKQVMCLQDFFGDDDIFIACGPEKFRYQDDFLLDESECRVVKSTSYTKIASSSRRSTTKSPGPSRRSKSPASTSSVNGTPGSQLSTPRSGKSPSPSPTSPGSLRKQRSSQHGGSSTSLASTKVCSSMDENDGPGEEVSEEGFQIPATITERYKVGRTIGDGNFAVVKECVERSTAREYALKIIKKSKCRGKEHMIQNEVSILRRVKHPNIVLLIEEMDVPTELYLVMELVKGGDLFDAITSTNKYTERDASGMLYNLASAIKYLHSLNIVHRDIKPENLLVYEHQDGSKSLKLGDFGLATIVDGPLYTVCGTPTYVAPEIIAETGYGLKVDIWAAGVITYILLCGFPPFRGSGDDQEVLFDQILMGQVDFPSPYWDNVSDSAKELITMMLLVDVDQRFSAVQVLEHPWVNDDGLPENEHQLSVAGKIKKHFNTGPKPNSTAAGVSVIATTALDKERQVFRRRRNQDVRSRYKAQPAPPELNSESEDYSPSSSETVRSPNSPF

[5] = target: cGMP-dependent protein kinase 1 (Homo sapiens, UniProt Q13976);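 also: value from a kinome panel screen with PRKG1 as the panel member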
cGMP-dependent protein kinase 1, sequence (Q13976 whole entry): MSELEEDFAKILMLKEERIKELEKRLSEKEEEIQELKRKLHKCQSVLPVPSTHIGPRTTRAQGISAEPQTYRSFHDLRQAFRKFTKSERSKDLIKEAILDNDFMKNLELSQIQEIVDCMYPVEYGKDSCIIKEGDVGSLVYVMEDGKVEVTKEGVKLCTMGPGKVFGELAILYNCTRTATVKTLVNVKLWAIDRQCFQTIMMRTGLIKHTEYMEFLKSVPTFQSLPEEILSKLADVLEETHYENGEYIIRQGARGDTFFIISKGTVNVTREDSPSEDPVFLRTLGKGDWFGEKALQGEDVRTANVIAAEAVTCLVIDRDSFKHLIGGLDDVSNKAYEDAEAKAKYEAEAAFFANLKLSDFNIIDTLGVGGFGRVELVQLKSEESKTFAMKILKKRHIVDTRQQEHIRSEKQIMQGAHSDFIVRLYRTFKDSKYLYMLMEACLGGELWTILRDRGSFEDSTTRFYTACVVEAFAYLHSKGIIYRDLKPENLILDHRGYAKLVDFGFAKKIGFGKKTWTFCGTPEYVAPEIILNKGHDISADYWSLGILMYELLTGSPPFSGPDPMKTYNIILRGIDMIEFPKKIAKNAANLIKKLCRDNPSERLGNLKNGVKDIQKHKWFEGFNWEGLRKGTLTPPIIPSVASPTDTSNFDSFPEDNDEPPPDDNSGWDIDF

IC50 [1] | Ki [2] | Ki [3] | pKi [3] | Ki [4] | Ki [5] | pKi [5] | SMILES
3.82 µM (active) |  |  |  |  |  |  | O=C(COC(=O)c1ccc([N+](=O)[O-])s1)Nc1ccc(F)cc1
 | > 3.98 µM (inactive) | 6.31 µM (active) | 5.2 | > 10 µM (inactive) | 0.1 µM (active) | 7 | OC1CCC(Nc2nc(Cl)cc(-c3c[nH]c4ncccc34)n2)CC1 (configuration not stated)
